Tests used:
[1] = Fraction unbound in mouse brain homogenate at 5 uM incubated for 6 hrs shaking at 250 rpm by LC-MS/MS analysis; type: ADME, tissue-based
[2] = Displacement of [3]10-methoxy-N-(pyridin-3-yl-7-thia-2,5-diazatricyclo(6.4.0.0 2.6)-dodeca-1(12),3,5,8,10-pentaene-4-carboxamide from polyglutamine Q46 aggregate (unknown origin) by radio ligand binding assay; set-up: species or system Homo sapiens
[3] = molecular target: Amyloid-beta precursor protein (Homo sapiens) (UniProt P05067); experiment: Displacement of [3]10-methoxy-N-(pyridin-3-yl-7-thia-2,5-diazatricyclo(6.4.0.0 2.6)-dodeca-1(12),3,5,8,10-pentaene-4-carboxamide from human Amyloid beta plaques using AD postmortem patient brain homogenates at 1 uM incubated for 2 hr by radio ligand binding assay relative to control; type: tissue-based
Sequence of Amyloid-beta precursor protein (Homo sapiens) (P05067 whole entry): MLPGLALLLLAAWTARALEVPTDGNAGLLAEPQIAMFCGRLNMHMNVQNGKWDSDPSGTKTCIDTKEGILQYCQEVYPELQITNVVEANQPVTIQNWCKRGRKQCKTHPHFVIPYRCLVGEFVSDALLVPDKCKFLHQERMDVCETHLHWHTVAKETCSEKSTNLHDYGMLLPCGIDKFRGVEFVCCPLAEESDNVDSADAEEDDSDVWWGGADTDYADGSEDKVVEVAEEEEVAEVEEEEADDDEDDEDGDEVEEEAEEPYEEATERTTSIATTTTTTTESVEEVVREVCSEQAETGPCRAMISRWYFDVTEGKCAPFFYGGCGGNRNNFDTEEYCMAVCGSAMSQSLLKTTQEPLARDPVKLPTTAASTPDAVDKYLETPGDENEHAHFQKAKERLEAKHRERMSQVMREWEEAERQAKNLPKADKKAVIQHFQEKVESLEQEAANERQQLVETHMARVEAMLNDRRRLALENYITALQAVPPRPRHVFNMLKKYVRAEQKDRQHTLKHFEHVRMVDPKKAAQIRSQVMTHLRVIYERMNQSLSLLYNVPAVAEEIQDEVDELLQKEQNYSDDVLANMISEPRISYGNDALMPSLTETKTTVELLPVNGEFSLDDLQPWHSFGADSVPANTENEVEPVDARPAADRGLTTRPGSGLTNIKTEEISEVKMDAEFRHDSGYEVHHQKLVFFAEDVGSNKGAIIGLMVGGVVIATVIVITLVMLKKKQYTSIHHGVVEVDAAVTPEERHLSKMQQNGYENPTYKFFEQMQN

[4] = Half life in mouse liver microsomes; type: ADME, Microsome
[5] = Stability in human plasma assessed as half life; type: ADME, cell-free
[6] = Fraction unbound in brain concentration ratio in C57BL/6 mouse at 0.05 mg/kg, iv; type: ADME, organism-based
[7] = Apparent permeability in MDCK cells; type: ADME, cell-based, Canis lupus familiaris; settings: dog
[8] = Stability in mouse plasma assessed as half life; type: ADME, cell-free
[9] = Half life in cynomolgus monkey liver microsomes; type: ADME, Macaca fascicularis, Microsome
[10] = Half life in human liver microsomes; type: ADME, Microsome
[11] = Drug metabolism in C57BL/6 mouse brain assessed as oxidative metabolite M2a at 0.05 mg/kg, iv; type: ADME, organism-based; settings: in vivo
[12] = Unbound brain-to-plasma concentration ratio in C57BL/6 mouse at 0.05 mg/kg, iv; type: ADME, organism-based; settings: brain and plasma, read-out: K(p,uu,brain)
[13] = Fraction unbound in plasma concentration ratio in C57BL/6 mouse at 0.05 mg/kg, iv; type: ADME, organism-based
[14] = system: MDR1; experiment: Efflux ratio of apparent permeability in MDCK cells expressing human MDR1; type: ADME, cell-based, Canis lupus familiaris; settings: dog
[15] = Drug metabolism in C57BL/6 mouse plasma assessed as oxidative metabolite M2a at 0.05 mg/kg, iv; type: ADME, organism-based; settings: in vivo
[16] = AUC (5 to 60 min) in C57BL/6 mouse brain at 0.05 mg/kg, iv; type: ADME, organism-based; set-up: dose 0.05 mg/kg
[17] = system: BCRP; experiment: Efflux ratio of apparent permeability in MDCK cells expressing human BCRP; type: ADME, cell-based, Canis lupus familiaris; settings: dog
[18] = Cmax in C57BL/6 mouse brain at 0.05 mg/kg, iv; type: ADME, organism-based; set-up: route intravenous, dose 0.05 mg/kg
[19] = Cmax in Cynomolgus macaque brain treated bolus injected into sural vein for 5 secs measured 30 to 120 mins by PET analysis; type: ADME, organism-based, Macaca fascicularis; set-up: time upper 120 min, time lower 30 min; settings: cynomolgus monkey, in vivo, iv
[20] = Tmax in Rhesus macaque brain treated bolus injected into sural vein for 5 secs measured 30 to 120 mins by PET analysis; type: ADME, organism-based, Macaca mulatta; settings: rhesus monkey, in vivo, iv; time 30-120 min
[21] = AUC in Rhesus macaque brain to plasma ratio treated bolus injected into sural vein for 5 secs measured 30 to 120 mins by PET analysis; type: ADME, organism-based, Macaca mulatta; settings: rhesus monkey, iv, time 30-120 min
[22] = Cmax in Rhesus macaque brain treated bolus injected into sural vein for 5 secs measured 30 to 120 mins by PET analysis; type: ADME, organism-based, Macaca mulatta; set-up: time upper 120 min, time lower 30 min; settings: rhesus monkey, in vivo, iv
[23] = Tmax in Cynomolgus macaque brain treated bolus injected into sural vein for 5 secs by PET analysis; type: ADME, organism-based, Macaca fascicularis; settings: cynomolgus monkey, in vivo, iv, 5 s; time 5 sec
[24] = AUC in Cynomolgus macaque brain to plasma ratio treated bolus injected into sural vein for 5 secs measured 30 to 120 mins by PET analysis; type: ADME, organism-based, Macaca fascicularis; settings: cynomolgus monkey, iv, time 30-120 min

Row | SMILES | fraction unbound at 6 h, 5 µM [1] | IC50 ([2]; read-out: IC50) [nM] | Activity [3] [%] | other results
1 | Cn1cc(NC(=O)c2ccn3c(n2)nc2ccccc23)ccc1=O | 0.46 | 26 | – | –
2 | COc1ncc(NC(=O)c2ccn3c(n2)nc2ccccc23)cc1C | 0.03 | 2.8 | -29 | –
3 | COc1cncc(NC(=O)c2ccn3c(n2)nc2ccccc23)c1 | 0.21 | 3.5 | 25 | half-life [4]: 4 min; half-life [5]: > 480 min; fraction unbound [6]: 0.21; Papp [7]: 12.5 ×10⁻⁶ cm/s; half-life [8]: 215 min; half-life [9]: 4 min; half-life [10]: 12 min; Drug metabolism [11]: Metabolite_Detected; Kp uu [12]: 1; fraction unbound [13]: 0.07; efflux ratio [14]: 0.8; Drug metabolism [15]: Metabolite_Detected; AUC(0-t) [16]: 2 nM·h; efflux ratio [17]: 2.7; Cmax [18]: 17 nM
4 | FCCC1CCN(c2ccn3c(n2)nc2ccccc23)CC1 | 0.12 | > 333 | 34 | –
5 | COc1ccc(NC(=O)c2ccc3c(c2)nc2ncccn23)cn1 | 0.38 | 69 | – | efflux ratio [14]: 0.6; efflux ratio [17]: 25
6 | COc1ccc2c(c1)nc1nc(C(=O)N3CC(N4CCOCC4)C3)ccn12 | – | 401 | – | –
7 | Cn1nc(NC(=O)c2ccn3c(n2)nc2ccccc23)ccc1=O | 0.37 | 16 | 12 | –
8 | Cc1cc(NC(=O)c2ccn3c(n2)nc2ccccc23)cnc1C | 0.02 | 1.4 | 21 | –
9 | COc1ccc(C(=O)Nc2ccn3c(n2)nc2ccccc23)cn1 | 0.16 | 1.6 | – | efflux ratio [14]: 0.5; efflux ratio [17]: 2.1
10 | COc1ccc2c(c1)nc1nc(C(=O)Nc3ccc(OC)nc3)ccn12 | 0.1 | 2.3 | 13 | –
11 | COc1ccc(NC(=O)c2ccc3c4cnccc4n(C)c3n2)cn1 | 0.04 | 1.3 | – | –
12 | COc1ccc2c(c1)nc1nc(C(=O)Nc3cccnn3)ccn12 | 0.54 | 17 | – | –
13 | O=C(Nc1cccnc1)c1ccn2c(n1)nc1ccccc12 | 0.21 | 39 | -12 | –
14 | O=C(Nc1ccccn1)c1ccn2c(n1)nc1ccccc12 | 0.29 | 8.4 | 24 | –
15 | COc1ccc2c(c1)nc1nc(C(=O)Nc3ccccn3)ccn12 | 0.18 | 6.8 | 41 | –
16 | COc1ccc2c(c1)nc1nc(C(=O)NC3CCCc4cccnc43)ccn12 (configuration not stated) | 0.17 | 48 | 8 | –
17 | COc1ccc2c(c1)nc1nc(C(=O)Nc3cnc(C)c(C)c3)ccn12 | – | – | – | Fu ([1]; 6 h, 5 µM): Nd(Insoluble); IC50 [2]: Nd(Insoluble)
18 | COc1ccc(NC(=O)c2ccnc(Nc3ccncc3)n2)cn1 | 0.02 | 5.3 | – | –
19 | Cn1cc(NC(=O)c2ccn3c(n2)nc2ccccc23)cnc1=O | 0.7 | 302 | – | –

Row | SMILES | fraction unbound at 6 h, 5 µM [1] | IC50 ([2]; read-out: IC50) [nM] | Activity [3] [%] | other results
20 | COc1cc(NC(=O)c2ccn3c(n2)nc2ccccc23)cnc1OC | 0.1 | 5.8 | 21 | –
21 | O=C(Nc1ccc(=O)[nH]c1)c1ccn2c(n1)nc1ccccc12 | 0.64 | 45 | – | –
22 | COc1ccc(COc2ccn3c(n2)nc2ccccc23)cn1 | 0.08 | 54 | – | efflux ratio [14]: 0.5; efflux ratio [17]: 0.5
23 | COc1ccc2c(c1)sc1nc(C(=O)Nc3cccnc3)cn12 | 0.03 | 4.3 | 100 | –
24 | [11CH3]Oc1ccc(NC(=O)c2ccn3c(n2)nc2ccccc23)cn1 | 0.11 | 3.6 | – | Cmax [19]: 3.5 %ID; half-life [4]: 8 min; half-life [5]: 127 min; Tmax [20]: 0.8 min; Ratio AUC [21]: 0.9; fraction unbound [6]: 0.11; Papp [7]: 9.4 ×10⁻⁶ cm/s; half-life [8]: 100 min; half-life [9]: 1 min; Cmax [22]: 3.2 %ID; half-life [10]: 8 min; Kp uu [12]: 0.9; fraction unbound [13]: 0.09; Tmax [23]: 0.8 min; efflux ratio [14]: 0.5; Ratio AUC [24]: 0.3; AUC(0-t) [16]: 3 nM·h; efflux ratio [17]: 0.9; Cmax [18]: 21 nM
25 | COc1ccc(NC(=O)c2ccc3c4cnccc4n(C(=O)OC(C)(C)C)c3n2)cn1 | 0.03 | 2.8 | – | efflux ratio [14]: 2; efflux ratio [17]: > 7.3
26 | COc1ccc2c(c1)nc1nc(C(=O)NC3CC3)ccn12 | 0.24 | 351 | – | –
27 | CNc1ccc(-c2cn3c(n2)sc2cc(OCCF)ccc23)cc1 | – | 5.7 | 130 | –
28 | COc1ccc2c(c1)nc1nc(C(=O)Nc3ccncn3)ccn12 | 0.23 | 9.2 | 30 | –
29 | C#CCCCNC(=O)c1ccn2c(n1)nc1cc(OC)ccc12 | 0.22 | 72 | – | –
30 | CN(C(=O)c1ccn2c(n1)nc1ccccc12)c1ccc(=O)[nH]c1 | 0.51 | > 1000 | – | –
31 | COc1ccc(COc2ccn3c(n2)nc2ccccc23)nc1 | – | 48 | – | efflux ratio [14]: 0.5; efflux ratio [17]: 1.3
32 | COc1ccc2c(c1)nc1nc(C(=O)Nc3cccnc3)ccn12 | 0.15 | 10 | 17 | –
33 | COc1ccc2c(c1)nc1nc(C(=O)N3Cc4cccnc4C3)ccn12 | 0.32 | 4.1 | 0 | –
34 | COc1ccc2c(c1)nc1nc(C(=O)Nc3ccc(=O)n(C)n3)ccn12 | 0.25 | 12 | – | –
35 | COc1cncc(NC(=O)c2ccn3c(n2)nc2cc(OC)ccc23)c1 | 0.15 | 2.1 | 5 | –
36 | COc1ccc(COc2ccc3oc(-c4ccc(=O)n(C)n4)nc3c2)nc1 | – | – | – | AUC(0-t) [16]: 65 nM·h; Cmax [18]: 124 nM
37 | COc1ccc(NC(=O)c2ccc3c(n2)oc2ccncc23)cn1 | 0.06 | 3.3 | – | –
